Source: US20220305012A1, “L[…] TREATING SLEEP ISSUES” (EISAI R&D MANAGEMENT CO., LTD., priority 2019, published 2022)

Assays:
Assay type in all cases: in vivo, human
[1] = test system: Subjects Having Insomnia Disorder; test: Example 2: latency to persistent sleep (LPS), polysomnography
Protocol: As used herein, the term “latency to persistent sleep”, abbreviated as “LPS.” means the minutes from lights off to the first epoch of 20 consecutive epochs (10 minutes) of non-wakefulness.
(§1) In some embodiments, a sleep parameter is determined objectively using polysomnography. Polysomnography is the monitoring of multiple electrophysiological parameters during sleep and generally includes measurement of EEG activity, electro-oculographic activity and electromyographic activity, as well as other measurements.
LPS—latency to persistent sleep: minutes from lights off to the first epoch of 20 consecutive epochs of non-wakefulness.
(§2) The treatment period lasted for 31 days. Subjects were randomized in a double-blind manner and received placebo, a tablet containing 5 mg of lemborexant, a tablet containing 10 mg of lemborexant, or a tablet containing 6.25 mg of zolpidem ER.
(§3) Within 5 minutes of the subject's mean habitual bedtime, study drug was administered and an overnight polysomnogram recording was initiated. At completion of the recording the following morning (Day 2), postural stability and cognitive performance were assessed. On the Day 2 evening, subjects returned to the clinic and a blood sample was collected before administering study drug, and then study drug was administered within 5 minutes of the subject's mean habitual bedtime. Again, a polysomnogram recording was initiated. The next morning (Day 3), postural stability and cognitive performance were assessed. A blood sample was also collected.
(§4) On Day 29, subjects returned to the clinic. Study drug was administered within 5 minutes of the subject's mean habitual bedtime and a polysomnogram recording was conducted. On the following morning (Day 30), postural stability and cognitive performance were assessed. After 1.5 hours of waketime, subjects rated their morning sleepiness level.
(§5) On the evening of Day 30, subjects returned to the clinic. A pre-dose blood sample was collected and study drug was again administered within 5 minutes of the subject's mean habitual bedtime. A polysomnogram recording was initiated. The following morning (Day 31), postural stability and cognitive performance were assessed and a blood sample was obtained. The ISI, FSS, EQ-5D-3L and PGI-Insomnia were administered. Blood and urine samples were collected for routine safety assessment. An electrocardiogram was performed, and vital signs and weight were assessed. The eC-SSRS was then administered to the subject. At 1.5 hours after waketime, subjects rated their morning sleepiness level.
The primary endpoint was to determine the change from baseline for mean latency to persistent sleep on days 29 and 30 of 5 mg or 10 mg lemborexant compared to placebo.

[2] = test system: Subjects Having Insomnia Disorder; test: Example 2: sleep efficiency (SE), polysomnography
Protocol: as §1
SE—sleep efficiency: proportion of time spent asleep per time in bed, calculated as TST/interval from lights off until lights on.
as §2, §3, §4, §5
One key secondary endpoint was to determine the change from baseline for mean sleep efficiency on Days 29 and 30 after administration of 5 mg or 10 mg of lemborexant, compared to placebo.

[3] = test system: Subjects Having Insomnia Disorder; test: Example 2: total sleep time (TST), polysomnography; conditions: Days 1/2; Lemborexant 5 mg
Protocol: as §1
TST—total sleep time: minutes of sleep from sleep onset until terminal awakening.
as §2, §3, §4, §5

## Cc1ncc(OC[C@@]2(c3cccc(F)c3)C[C@H]2C(=O)Nc2ccc(F)cn2)c(C)n1 [Lemborexant, (1R,2S)-2-(((2,4-dimethylpyrimidin-5-yl)oxy)methyl)-2-(3-fluorophenyl)-N-(5-fluoropyridin-2-yl)cyclopropanecarboxamide]
[1]; 5 mg vs zolpidem ER 6.25 mg, Days 1/2
  LPS LSM treatment ratio: Lemborexant/Zolpidem: 0.874
[1]; 5 mg vs zolpidem ER 6.25 mg, Days 29/30
  LPS LSM treatment ratio: Lemborexant/Zolpidem: 0.634
[1]; 5 mg, Days 1/2
  LPS LSM treatment ratio: Active/Placebo: 0.850
  LPS, Mean: 28.27 min
  LPS, Median: 21.63 min
[1]; 5 mg, Days 29/30
  LPS LSM treatment ratio: Active/Placebo: 0.773
  LPS, Mean: 25.84 min
  LPS, Median: 18.75 min
[1]; 5 mg, Study Baseline
  LPS, Mean: 44.86 min
  LPS, Median: 33.13 min
[1]; 5 mg, at Days 1/2
  LPS Change from Study Baseline, Mean: -16.59 min
  LPS Change from Study Baseline, Median: -10.00 min
[1]; 5 mg, at Days 29/30
  LPS Change from Study Baseline, Mean: -19.53 min
  LPS Change from Study Baseline, Median: -12.00 min
[1]; 10 mg vs zolpidem ER 6.25 mg, Days 1/2
  LPS LSM treatment ratio: Lemborexant/Zolpidem: 0.818
[1]; 10 mg vs zolpidem ER 6.25 mg, Days 29/30
  LPS LSM treatment ratio: Lemborexant/Zolpidem: 0.594
[1]; 10 mg, Days 1/2
  LPS LSM treatment ratio: Active/Placebo: 0.795
  LPS, Mean: 25.13 min
  LPS, Median: 21.75 min
[1]; 10 mg, Days 29/30
  LPS LSM treatment ratio: Active/Placebo: 0.723
  LPS, Mean: 22.75 min
  LPS, Median: 19.25 min
[1]; 10 mg, Study Baseline
  LPS, Mean: 44.61 min
  LPS, Median: 38.50 min
[1]; 10 mg, at Days 1/2
  LPS Change from Study Baseline, Mean: -19.48 min
  LPS Change from Study Baseline, Median: -10.50 min
[1]; 10 mg, at Days 29/30
  LPS Change from Study Baseline, Mean: -21.46 min
  LPS Change from Study Baseline, Median: -16.25 min
[1]; all lemborexant treatment groups, relative to baseline, placebo group, and zolpidem group (Table 13)
  mean latency to persistent sleep: reduced
[2]; Days 1/2, Lemborexant 5 mg
  Sleep Efficiency, Change from Study Baseline, Mean (SD): 13.60 (9.725)
  Sleep Efficiency, Change from Study Baseline, Median: 12.40
  Sleep Efficiency, Mean (SD): 81.96 (8.384)
  Sleep Efficiency, Median: 83.62
[2]; Days 1/2, Lemborexant 10 mg
  Sleep Efficiency, Change from Study Baseline, Mean (SD): 16.48 (9.623)
  Sleep Efficiency, Change from Study Baseline, Median: 15.47
  Sleep Efficiency, Mean (SD): 84.33 (7.608)
  Sleep Efficiency, Median: 85.73
[2]; Days 29/30, Lemborexant 5 mg
  Sleep Efficiency, Change from Study Baseline, LSM treatment difference: Lemborexant-Zolpidem: 3.92 (0.705)
  Sleep Efficiency, Change from Study Baseline, Mean (SD): 12.93 (9.741)
  Sleep Efficiency, Change from Study Baseline, Median: 11.85
  Sleep Efficiency, Mean (SD): 81.29 (8.800)
  Sleep Efficiency, Median: 83.26
[2]; Days 29/30, Lemborexant 10 mg
  Sleep Efficiency, Change from Study Baseline, LSM treatment difference: Lemborexant-Zolpidem: 4.88 (0.702)
  Sleep Efficiency, Change from Study Baseline, Mean (SD): 14.09 (10.514)
  Sleep Efficiency, Change from Study Baseline, Median: 13.57
  Sleep Efficiency, Mean (SD): 81.99 (8.801)
  Sleep Efficiency, Median: 83.52
[2]; all lemborexant treatment groups, relative to baseline, placebo and zolpidem treatment groups (Table 14)
  mean sleep efficiency: increased
[3]
  Total Sleep Time, Change from Study Baseline, Mean (SD): 65.22 (46.695)
